Experimental data taken from US9795134B2, “Growth enhancement of plant” (RHODIA OPERATIONS, priority 2012, dated 2017).

Tested on: Wheat seeds
Experiment: Germination test on wheat seeds with pesticide (tebuconazol) treatment
Type: in vivo
Settings: Guar 1/seed 0.2%, tebuconazol/seed 0.1%, 25 ml water each 2 days, 25° C.
Text: Germination rate means the number of plant emerging out of soil in comparison with the number of all introduced in the soil. Height is the medium height of all plants in a set. Spraying an aqueous solution comprising 0.4 wt % of Guar 1 and […] additives on the surface of Wheat seeds, to obtain a weight ratio Guar 1/seed of 0.2% and tebuconazol/seed of 0.1%. 900 g of soil in each pot are used; this soil coming from […] province and belongs to […] soil. The germination test is carried out under watering conditions of 25 ml water each 2 days, with a temperature is 25° C.

For `CC(C)(C)C(O)(CCc1ccc(Cl)cc1)Cn1cncn1` (centres unmarked) [tebucanozol, tebuconazol], the “Germination rate (36 days)” value was 47% and the “Height (36 days)” value was 4.6 cm.
